# Assay results: patent publication US10441548B2, “Aggregating microparticles for medical therapy” (GRAYBUG VISION, INC., priority 2015, dated 2019)
# Test: Acute non-GLP IVT ocular tolerability and toxicity study of sunitinib malate (free drug)
# Assay type: in vivo, pigmented rabbits
# Details: single bilateral IVT injection in PBS, up to 7 days
# Protocol: An acute, non-GLP IVT study was conducted to evaluate the ocular tolerability and toxicity of sunitinib malate (free drug) for up to 7 days following a single IVT injection. Sunitinib malate was formulated in phosphate buffered saline and injected bilaterally (0.1 mL) at 0.125 or 1.25 mg per eye.
# FIG. 13A, FIG. 13B, and FIG. 13C illustrate select PK profiles for sunitinib malate in the retina, vitreous, and plasma, respectively, from pigmented rabbits.
smiles,measurement,value
CCN(CC)CCNC(=O)c1c(C)[nH]c(/C=C2\C(=O)Nc3ccc(F)cc32)c1C [sunitinib malate],no-observed-adverse-effect-level (NOAEL) dose,0.125 mg/eye
